Test results: PMC12136037, “Type II kinase inhibitors that target Parkinson’s disease–associated LRRK2” (Science Advances, 2025)
Values joined by “and” are separate entries in the source; they are usually repeats but may differ in a detail not shown here. Identical values can stand only once.

What was measured:
Format in all cases: binding
[1] = biological target: T1, ~100 representative kinases (Homo sapiens, UniProt P34947); test: DSF 100 kinase selectivity screen; conditions: protein GPRK5; average of three replicates;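 also: compound tested at 20 µM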
T1 construct: Recombinant protein kinase domains with a concentration of 2 μM
T1 sequence (P34947 whole entry, the tested form may be a part): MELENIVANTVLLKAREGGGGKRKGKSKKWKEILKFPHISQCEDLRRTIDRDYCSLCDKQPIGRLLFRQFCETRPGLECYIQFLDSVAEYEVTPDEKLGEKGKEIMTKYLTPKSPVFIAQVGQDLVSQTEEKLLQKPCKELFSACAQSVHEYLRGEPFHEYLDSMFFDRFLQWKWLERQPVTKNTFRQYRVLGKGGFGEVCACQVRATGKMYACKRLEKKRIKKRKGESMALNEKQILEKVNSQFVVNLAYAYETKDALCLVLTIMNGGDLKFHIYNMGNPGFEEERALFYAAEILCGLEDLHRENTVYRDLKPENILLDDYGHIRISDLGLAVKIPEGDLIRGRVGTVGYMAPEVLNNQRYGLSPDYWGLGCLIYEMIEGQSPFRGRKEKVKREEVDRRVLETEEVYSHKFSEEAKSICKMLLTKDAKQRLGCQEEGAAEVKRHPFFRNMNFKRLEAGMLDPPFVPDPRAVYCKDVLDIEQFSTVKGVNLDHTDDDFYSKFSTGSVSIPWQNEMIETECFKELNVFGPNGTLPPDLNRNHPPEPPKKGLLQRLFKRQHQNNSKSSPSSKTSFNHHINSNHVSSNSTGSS
Method: (§1) Recombinant protein kinase domains with a concentration of 2 μM were mixed with a 20 μM compound solution in dimethyl sulfoxide (DMSO), 20 mM Hepes (pH 7.5), and 500 mM NaCl. SYPRO Orange (5000×, Invitrogen) was added as a fluorescence probe (1μl/ml). Subsequently, temperature-dependent protein unfolding profiles were measured using the QuantStudio 5 realtime PCR machine (Thermo Fisher Scientific, Waltham, MA, USA). […] The temperature was raised with a step rate of 3°C/min. […] Differences in melting temperature are given as ΔTm values in degrees Celsius. […]

[2] = biological target: T2, ~100 representative kinases (Homo sapiens, UniProt Q96NX5); test: DSF 100 kinase selectivity screen; conditions: Protein CAMK1G; average of three replicates;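 also: compound tested at 20 µM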
T2 construct: Recombinant protein kinase domains with a concentration of 2 μM
T2 sequence (Q96NX5 whole entry, the tested form may be a part): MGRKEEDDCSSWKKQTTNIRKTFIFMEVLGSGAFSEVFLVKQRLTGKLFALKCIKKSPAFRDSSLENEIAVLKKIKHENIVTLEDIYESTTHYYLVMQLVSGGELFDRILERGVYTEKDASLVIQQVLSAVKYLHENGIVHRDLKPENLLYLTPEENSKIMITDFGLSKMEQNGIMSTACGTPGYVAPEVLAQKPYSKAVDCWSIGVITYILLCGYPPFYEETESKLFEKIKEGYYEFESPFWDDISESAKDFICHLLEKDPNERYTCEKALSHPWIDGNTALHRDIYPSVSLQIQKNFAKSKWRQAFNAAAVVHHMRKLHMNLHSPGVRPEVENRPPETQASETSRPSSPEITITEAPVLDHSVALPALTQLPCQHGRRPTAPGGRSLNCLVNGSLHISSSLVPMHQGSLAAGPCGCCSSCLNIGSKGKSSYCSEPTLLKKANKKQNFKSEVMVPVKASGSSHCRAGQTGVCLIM
Method: as §1

[3] = biological target: T3, ~100 representative kinases (Homo sapiens, UniProt P21802); test: DSF 100 kinase selectivity screen; conditions: protein FGFR2; average of three replicates;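 also: compound tested at 20 µM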
T3 construct: Recombinant protein kinase domains with a concentration of 2 μM
T3 sequence (P21802 22-821): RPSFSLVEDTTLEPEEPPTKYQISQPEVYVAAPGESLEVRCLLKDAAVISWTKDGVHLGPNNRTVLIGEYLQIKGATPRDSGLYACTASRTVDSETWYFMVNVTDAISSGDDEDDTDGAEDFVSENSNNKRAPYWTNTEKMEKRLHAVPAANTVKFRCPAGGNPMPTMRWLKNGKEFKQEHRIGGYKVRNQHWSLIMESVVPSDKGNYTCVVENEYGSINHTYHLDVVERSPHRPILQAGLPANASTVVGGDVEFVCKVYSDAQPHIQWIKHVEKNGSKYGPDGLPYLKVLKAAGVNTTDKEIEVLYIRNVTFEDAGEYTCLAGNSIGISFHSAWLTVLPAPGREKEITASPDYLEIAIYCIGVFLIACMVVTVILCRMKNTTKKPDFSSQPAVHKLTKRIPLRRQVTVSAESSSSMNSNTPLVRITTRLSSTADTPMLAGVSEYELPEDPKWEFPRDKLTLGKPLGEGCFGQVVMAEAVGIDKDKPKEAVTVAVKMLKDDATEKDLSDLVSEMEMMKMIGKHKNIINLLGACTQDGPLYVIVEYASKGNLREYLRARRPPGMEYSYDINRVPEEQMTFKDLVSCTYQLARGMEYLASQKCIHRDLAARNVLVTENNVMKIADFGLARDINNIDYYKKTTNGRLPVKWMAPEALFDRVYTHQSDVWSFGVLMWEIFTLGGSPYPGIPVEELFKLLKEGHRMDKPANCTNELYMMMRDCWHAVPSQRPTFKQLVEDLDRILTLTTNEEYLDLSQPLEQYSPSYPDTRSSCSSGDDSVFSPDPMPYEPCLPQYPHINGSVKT
Method: as §1

[4] = biological target: T4, ~100 representative kinases (Homo sapiens, UniProt Q14680); test: DSF 100 kinase selectivity screen; conditions: protein MELK; average of three replicates;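 also: compound tested at 20 µM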
T4 construct: Recombinant protein kinase domains with a concentration of 2 μM
Method: as §1

[5] = biological target: T5, ~100 representative kinases (Homo sapiens, UniProt P68400); test: DSF 100 kinase selectivity screen; conditions: Protein CK2A1; average of three replicates;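 also: compound tested at 20 µM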
T5 construct: Recombinant protein kinase domains with a concentration of 2 μM
T5 sequence (P68400 whole entry, the tested form may be a part): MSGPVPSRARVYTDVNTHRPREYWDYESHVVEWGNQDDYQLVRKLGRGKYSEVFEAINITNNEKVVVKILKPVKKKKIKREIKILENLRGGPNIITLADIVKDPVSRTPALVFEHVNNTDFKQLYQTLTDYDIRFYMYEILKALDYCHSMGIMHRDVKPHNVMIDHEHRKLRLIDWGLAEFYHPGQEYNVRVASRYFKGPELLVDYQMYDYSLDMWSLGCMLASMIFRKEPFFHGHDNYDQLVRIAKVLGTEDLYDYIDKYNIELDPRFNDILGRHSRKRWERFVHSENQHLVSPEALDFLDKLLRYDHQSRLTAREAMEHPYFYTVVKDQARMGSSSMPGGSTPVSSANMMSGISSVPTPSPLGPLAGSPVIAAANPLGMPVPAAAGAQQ
Method: as §1

[6] = biological target: T6, ~100 representative kinases (Homo sapiens, UniProt P19784); test: DSF 100 kinase selectivity screen; conditions: Protein CK2A2; average of three replicates;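 also: compound tested at 20 µM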
T6 construct: Recombinant protein kinase domains with a concentration of 2 μM
T6 sequence (P19784 whole entry, the tested form may be a part): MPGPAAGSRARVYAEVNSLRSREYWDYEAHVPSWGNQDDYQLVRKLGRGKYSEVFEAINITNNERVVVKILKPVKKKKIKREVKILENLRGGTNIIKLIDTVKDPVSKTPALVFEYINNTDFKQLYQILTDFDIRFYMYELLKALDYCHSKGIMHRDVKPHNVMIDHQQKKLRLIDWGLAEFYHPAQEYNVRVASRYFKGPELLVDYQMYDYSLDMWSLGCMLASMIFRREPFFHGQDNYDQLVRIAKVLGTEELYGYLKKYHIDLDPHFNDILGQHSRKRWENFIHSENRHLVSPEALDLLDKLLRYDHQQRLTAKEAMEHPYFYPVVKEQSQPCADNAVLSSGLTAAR
Method: as §1

[7] = biological target: T7, ~100 representative kinases (Homo sapiens, UniProt Q9NSY1); test: DSF 100 kinase selectivity screen; conditions: Protein BMP2K; average of three replicates
T7 construct: Recombinant protein kinase domains with a concentration of 2 μM
T7 sequence (Q9NSY1 whole entry, the tested form may be a part): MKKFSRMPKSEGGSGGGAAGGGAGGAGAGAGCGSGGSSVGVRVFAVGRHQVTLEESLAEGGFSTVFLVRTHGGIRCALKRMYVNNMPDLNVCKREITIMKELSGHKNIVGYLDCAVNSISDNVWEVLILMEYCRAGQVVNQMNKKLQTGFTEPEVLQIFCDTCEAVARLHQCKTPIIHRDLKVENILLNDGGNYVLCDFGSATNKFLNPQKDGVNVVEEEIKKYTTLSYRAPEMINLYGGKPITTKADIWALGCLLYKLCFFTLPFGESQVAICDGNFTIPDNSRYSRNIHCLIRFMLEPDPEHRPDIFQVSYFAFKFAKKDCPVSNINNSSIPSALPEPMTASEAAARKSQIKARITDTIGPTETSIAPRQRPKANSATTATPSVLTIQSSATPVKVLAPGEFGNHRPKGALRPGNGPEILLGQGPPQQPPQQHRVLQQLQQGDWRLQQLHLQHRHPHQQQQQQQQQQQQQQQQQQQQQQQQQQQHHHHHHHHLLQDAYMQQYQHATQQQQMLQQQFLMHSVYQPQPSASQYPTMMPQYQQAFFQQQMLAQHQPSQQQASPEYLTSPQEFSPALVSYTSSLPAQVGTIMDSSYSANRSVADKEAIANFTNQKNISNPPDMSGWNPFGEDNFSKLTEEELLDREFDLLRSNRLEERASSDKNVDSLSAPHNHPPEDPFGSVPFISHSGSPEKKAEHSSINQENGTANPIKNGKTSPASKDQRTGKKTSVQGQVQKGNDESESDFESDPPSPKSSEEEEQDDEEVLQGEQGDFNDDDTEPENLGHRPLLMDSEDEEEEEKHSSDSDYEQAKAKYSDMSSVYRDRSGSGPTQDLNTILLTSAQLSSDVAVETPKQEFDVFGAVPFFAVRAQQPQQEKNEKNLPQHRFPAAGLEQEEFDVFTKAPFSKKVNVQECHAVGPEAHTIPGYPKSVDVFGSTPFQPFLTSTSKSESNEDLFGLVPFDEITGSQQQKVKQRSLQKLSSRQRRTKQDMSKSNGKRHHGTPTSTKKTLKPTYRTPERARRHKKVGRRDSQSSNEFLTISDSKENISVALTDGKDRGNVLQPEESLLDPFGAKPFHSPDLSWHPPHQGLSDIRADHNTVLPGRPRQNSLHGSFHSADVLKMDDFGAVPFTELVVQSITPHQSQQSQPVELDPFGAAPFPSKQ
Method: as §1

[8] = biological target: T8, ~100 representative kinases (Homo sapiens, UniProt O00444); test: DSF 100 kinase selectivity screen; conditions: protein PLK4; average of three replicates
T8 construct: Recombinant protein kinase domains with a concentration of 2 μM
T8 sequence (O00444 1-970): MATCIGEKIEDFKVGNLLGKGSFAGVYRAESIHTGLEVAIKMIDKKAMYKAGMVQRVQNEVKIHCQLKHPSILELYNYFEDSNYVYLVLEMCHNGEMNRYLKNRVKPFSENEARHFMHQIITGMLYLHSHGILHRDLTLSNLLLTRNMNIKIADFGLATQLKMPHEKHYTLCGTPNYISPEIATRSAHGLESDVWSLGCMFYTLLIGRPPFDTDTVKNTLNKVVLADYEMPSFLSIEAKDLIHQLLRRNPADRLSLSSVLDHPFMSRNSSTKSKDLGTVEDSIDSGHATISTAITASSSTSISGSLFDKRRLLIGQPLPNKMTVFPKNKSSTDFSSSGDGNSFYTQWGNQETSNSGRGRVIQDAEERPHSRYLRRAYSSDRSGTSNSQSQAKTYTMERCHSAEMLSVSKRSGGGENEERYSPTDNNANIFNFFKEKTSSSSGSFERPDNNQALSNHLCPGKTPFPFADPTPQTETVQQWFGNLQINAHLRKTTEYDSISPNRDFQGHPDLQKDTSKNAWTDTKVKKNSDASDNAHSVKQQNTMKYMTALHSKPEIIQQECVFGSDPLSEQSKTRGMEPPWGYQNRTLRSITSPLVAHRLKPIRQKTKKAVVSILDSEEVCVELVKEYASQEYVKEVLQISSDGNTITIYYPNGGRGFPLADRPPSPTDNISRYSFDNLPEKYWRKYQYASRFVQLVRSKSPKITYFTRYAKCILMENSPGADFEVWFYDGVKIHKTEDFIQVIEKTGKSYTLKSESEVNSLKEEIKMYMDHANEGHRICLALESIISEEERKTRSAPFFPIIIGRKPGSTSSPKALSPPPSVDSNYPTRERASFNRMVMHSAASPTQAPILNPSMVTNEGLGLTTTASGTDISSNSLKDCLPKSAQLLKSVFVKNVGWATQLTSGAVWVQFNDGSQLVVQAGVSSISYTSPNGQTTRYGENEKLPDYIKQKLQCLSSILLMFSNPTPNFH
Method: as §1

[9] = biological target: T9, ~100 representative kinases (Homo sapiens, UniProt Q00532); test: DSF 100 kinase selectivity screen; conditions: Protein CDKL1; average of three replicates
T9 construct: Recombinant protein kinase domains with a concentration of 2 μM
T9 sequence (Q00532 whole entry, the tested form may be a part): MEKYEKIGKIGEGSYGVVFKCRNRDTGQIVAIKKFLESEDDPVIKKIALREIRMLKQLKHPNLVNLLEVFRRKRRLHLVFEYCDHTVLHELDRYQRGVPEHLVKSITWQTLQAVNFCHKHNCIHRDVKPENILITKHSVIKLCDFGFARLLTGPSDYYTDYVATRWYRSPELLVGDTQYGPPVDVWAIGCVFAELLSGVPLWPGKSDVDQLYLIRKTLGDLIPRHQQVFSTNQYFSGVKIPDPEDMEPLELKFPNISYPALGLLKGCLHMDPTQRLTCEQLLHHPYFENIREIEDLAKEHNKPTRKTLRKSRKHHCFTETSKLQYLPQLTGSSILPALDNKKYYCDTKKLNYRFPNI
Method: as §1

[10] = biological target: T10, ~100 representative kinases (Homo sapiens, UniProt P53779); test: DSF 100 kinase selectivity screen; conditions: protein MAPK10; average of three replicates
T10 construct: Recombinant protein kinase domains with a concentration of 2 μM
T10 sequence (P53779 whole entry, the tested form may be a part): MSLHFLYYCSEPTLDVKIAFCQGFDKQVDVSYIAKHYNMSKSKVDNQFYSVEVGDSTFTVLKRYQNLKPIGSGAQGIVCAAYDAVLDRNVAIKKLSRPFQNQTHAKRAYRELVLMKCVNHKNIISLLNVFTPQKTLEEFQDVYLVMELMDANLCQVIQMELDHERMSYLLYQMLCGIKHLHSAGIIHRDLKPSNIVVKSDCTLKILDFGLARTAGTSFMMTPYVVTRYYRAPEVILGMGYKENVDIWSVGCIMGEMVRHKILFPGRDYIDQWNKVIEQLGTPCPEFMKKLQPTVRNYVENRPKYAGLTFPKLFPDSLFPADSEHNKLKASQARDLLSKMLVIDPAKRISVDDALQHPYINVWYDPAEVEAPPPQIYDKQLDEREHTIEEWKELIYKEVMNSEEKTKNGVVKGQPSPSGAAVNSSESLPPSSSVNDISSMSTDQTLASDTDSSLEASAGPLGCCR
Method: as §1

LRRK2^KW = biological target: T11, LRRK2^KW (Homo sapiens, UniProt Q5S007); test: DSF thermal stabilization of LRRK2^KW; conditions: DSF, LRRK2^KW, 10 μM inhibitor
T11 construct: LRRK2 R1847 to E2527; His6-Z-tag (TEV cleavable) (N, cleaved yes); host or cells: Sf9 insect cells (baculovirus)
T11 sequence (Q5S007 1847-2527): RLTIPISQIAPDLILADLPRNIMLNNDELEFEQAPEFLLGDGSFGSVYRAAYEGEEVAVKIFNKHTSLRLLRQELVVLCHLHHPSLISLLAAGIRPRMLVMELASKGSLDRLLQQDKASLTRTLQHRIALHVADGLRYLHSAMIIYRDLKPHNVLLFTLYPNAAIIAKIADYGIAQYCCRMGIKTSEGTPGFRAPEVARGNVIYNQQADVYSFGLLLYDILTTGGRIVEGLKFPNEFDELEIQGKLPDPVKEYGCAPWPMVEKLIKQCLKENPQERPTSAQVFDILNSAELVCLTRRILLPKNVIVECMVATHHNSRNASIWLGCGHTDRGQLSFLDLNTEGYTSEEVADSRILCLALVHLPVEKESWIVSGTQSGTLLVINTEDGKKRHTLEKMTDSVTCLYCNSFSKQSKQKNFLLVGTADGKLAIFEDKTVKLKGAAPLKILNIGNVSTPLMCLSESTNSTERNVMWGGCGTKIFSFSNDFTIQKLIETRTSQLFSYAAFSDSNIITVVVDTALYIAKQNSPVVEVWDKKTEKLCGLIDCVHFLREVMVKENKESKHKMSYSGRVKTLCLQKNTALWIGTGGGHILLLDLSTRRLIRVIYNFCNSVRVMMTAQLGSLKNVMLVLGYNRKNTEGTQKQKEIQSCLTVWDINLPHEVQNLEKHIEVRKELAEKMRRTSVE
Summary of the method: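 DSF on 4 μM LRRK2^KW in 20 mM Hepes pH 7.4, 150 mM NaCl, 0.5 mM TCEP, 0.5% glycerol, 20 μM GDP, 2.5 mM MgCl2 with SYPRO Orange; inhibitor at 10 μM. Tm was taken as the minimum of the first derivative of fluorescence versus temperature, relative to control.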

dTm [1]	dTm [2]	dTm [3]	dTm [4]	dTm [5]	dTm [6]	dTm [7]	dTm [8]	dTm [9]	dTm [10]	∆Tm (K) (LRRK2^KW)	Structure (SMILES)
0.19 K	2.40 K	4.16 K	8.08 K	2.53 K	-0.08 K	7.81 K	6.48 K	3.12 K	4.55 K	9.5 K	Cc1ccc(C(=O)Nc2ccc(CN3CCN(C)CC3)c(C(F)(F)F)c2)cc1C#Cc1c[nH]c2ncnc(N3CCOCC3)c12 [Compound 1]
-0.82 K	1.77 K	2.43 K	14.87 K	0.00 K	6.40 K	6.37 K	8.51 K	2.59 K	-0.56 K		O=C(Nc1ccc(F)cc1)C1(C(=O)Nc2cccc(-c3c[nH]c4ncnc(N5CCOCC5)c34)c2)CC1 [Compound 2]
0.55 K	1.22 K	5.86 K	12.90 K	1.35 K	-5.10 K	3.26 K	8.52 K	5.10 K	7.48 K	13.0 K	O=C(Nc1cccc(-c2c[nH]c3ncnc(N4CCOCC4)c23)c1)c1cccn(-c2ccc(F)cc2)c1=O [Compound 4]
0.0071 K	3.07 K	1.97 K	11.24 K	0.12 K	2.54 K	5.63 K	7.27 K	0.62 K	2.20 K	10.0 K	Cc1cc(NC(=O)C2(C(=O)Nc3ccc(F)cc3)CC2)cc(-c2c[nH]c3ncnc(N4CCOCC4)c23)c1 [Compound 6]
-0.20 K	2.69 K	2.75 K	10.76 K	-1.70 K	1.05 K	8.56 K	7.44 K	3.41 K	5.69 K	9.2 K	O=C(Nc1cccc(-c2c[nH]c3ncnc(N4CCOCC4)c23)c1)C1(C(=O)Nc2cccc3c2CCC3)CC1 [Compound 11]
0.86 K	1.89 K	2.56 K	12.58 K	0.00 K	7.05 K	7.72 K	6.79 K	3.09 K	2.45 K	9.3 K	O=C(Nc1ccccc1)C1(C(=O)Nc2cccc(-c3c[nH]c4ncnc(N5CCOCC5)c34)c2)CC1 [Compound 12]
1.38 K	3.50 K	3.14 K	15.01 K	0.00 K	9.70 K	6.46 K	9.01 K	3.38 K	3.61 K	9.5 K	O=C(Nc1ccc(Cl)cc1)C1(C(=O)Nc2cccc(-c3c[nH]c4ncnc(N5CCOCC5)c34)c2)CC1 [Compound 13]
1.16 K	1.99 K	-0.14 K	0.45 K	0.51 K	1.16 K	0.08 K	4.57 K	0.44 K	2.71 K		COc1cc(S(C)(=O)=O)ccc1Nc1nc(N(C)C)c2c(Cl)c[nH]c2n1 [Compound 37]
0.32 K	0.32 K	0.49 K	2.44 K	1.87 K	2.65 K	8.11 K	1.52 K	0.08 K	0.33 K		CCNc1nc(Nc2cc(F)c(C(=O)N3CCOCC3)cc2OC)ncc1C(F)(F)F [GNE-7915]

Structure (SMILES)	dTm [1]	dTm [2]	dTm [3]	dTm [4]	dTm [5]	dTm [6]	dTm [7]	dTm [8]	dTm [9]	dTm [10]	∆Tm (K) (LRRK2^KW)
C[C@@H]1CN(c2cc(-c3n[nH]c4ccc(OC5(C)CC5)cc34)ncn2)C[C@H](C)O1 [MLi2]	0.07 K	3.50 K	-0.06 K	0.47 K	0.17 K	-0.31 K	2.01 K	3.07 K	-0.11 K	0.0276 K	
Cn1cc(-c2c[nH]c3ncnc(N4CCOCC4)c23)cc1C#N [PFE-360]	0.56 K	-0.81 K	0.89 K	5.72 K	0.25 K	0.26 K	14.15 K	4.43 K	-0.24 K	-1.02 K	
Cc1ccc(C(=O)Nc2ccc(CN3CCN(C)CC3)c(C(F)(F)F)c2)cc1C#Cc1cnc2cccnn12 [Ponatinib, reference compound]		1.16 K	12.49 K								13.0 K
CNC(=O)c1cc(Oc2ccc(NC(=O)Nc3cc(C(C)(C)C)nn3-c3ccc4ncccc4c3)c(F)c2)ccn1 [Rebastinib, reference compound]	0.59 K		10.35 K	0.63 K		1.06 K	0.72 K	6.17 K	5.33 K	3.02 K	18.5 K and 18.5 ± 0.7 K
CN[C@@H]1C[C@H]2O[C@@](C)([C@@H]1OC)n1c3ccccc3c3c4c(c5c6ccccc6n2c5c31)C(=O)NC4 [Staurosporine]	7.02 K			14.15 K			18.68 K	19.68 K			
